pIC50: −log10 of the molar value.
System: 653999-131-R-J2-PDC complex spheroids, growth inhibition
Assay: Anticancer human tumor 653999-131-R-J2-PDC patient-derived lung adenocarcinoma cell line growth inhibition [RAS]
Settings: for pIC50: curve of first compound; for viability, T/C: stronger effect = lower value
Summary of the method: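 Multi-cell-type spheroids: tumor cells plus HUVEC endothelial cells and mesenchymal stem cells. RAS-pathway inhibitors were combined with targeted agents, each dosed in half-log steps down from clinical Cmax, or from 10 microM when Cmax was unknown.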
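Note: spheroids exposed to the agents for seven days before the readout.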

Cc1nc(N2CCC3(CC2)COC(C)C3N)c(CO)nc1Sc1ccnc(N)c1Cl (centres undefined) + C=CC(=O)N1CCN(c2nc(OCC3CCCN3C)nc3c(F)c(-c4nc(N)cc(C)c4C(F)(F)F)c(Cl)cc23)C(C)C1
pIC50 (second compound 0.00316 µM): < 5.00 | pIC50 (second compound 0.01 µM): < 5.00 | pIC50 (second compound 0.0316 µM): < 5.00 | pIC50 (second compound 0.1 µM): < 5.00 | pIC50 (second compound 0.316 µM): < 5.00 | pIC50 (second compound 1 µM): < 5.00 | viability, T/C (second compound 0.00316 µM, first compound 0.0316 µM): 81.4% | viability, T/C (second compound 0.00316 µM, first compound 0.1 µM): 76.7% | viability, T/C (second compound 0.00316 µM, first compound 0.316 µM): 77.9% | viability, T/C (second compound 0.00316 µM, first compound 1 µM): 74.6% | viability, T/C (second compound 0.00316 µM, first compound 3.16 µM): 83.3% | viability, T/C (second compound 0.00316 µM, first compound 10 µM): 78.2% | viability, T/C (second compound 0.01 µM, first compound 0.0316 µM): 90.5% | viability, T/C (second compound 0.01 µM, first compound 0.1 µM): 86.5% | viability, T/C (second compound 0.01 µM, first compound 0.316 µM): 78.3% | viability, T/C (second compound 0.01 µM, first compound 1 µM): 80.6% | viability, T/C (second compound 0.01 µM, first compound 3.16 µM): 86.9% | viability, T/C (second compound 0.01 µM, first compound 10 µM): 63.9% | viability, T/C (second compound 0.0316 µM, first compound 0.0316 µM): 87.2% | viability, T/C (second compound 0.0316 µM, first compound 0.1 µM): 82.6% | viability, T/C (second compound 0.0316 µM, first compound 0.316 µM): 93.1% | viability, T/C (second compound 0.0316 µM, first compound 1 µM): 84.7% | viability, T/C (second compound 0.0316 µM, first compound 3.16 µM): 78.1% | viability, T/C (second compound 0.0316 µM, first compound 10 µM): 63.9% | viability, T/C (second compound 0.1 µM, first compound 0.0316 µM): 103% | viability, T/C (second compound 0.1 µM, first compound 0.1 µM): 77.6% | viability, T/C (second compound 0.1 µM, first compound 0.316 µM): 90.2% | viability, T/C (second compound 0.1 µM, first compound 1 µM): 73.5% | viability, T/C (second compound 0.1 µM, first compound 3.16 µM): 77% | viability, T/C (second compound 0.1 µM, first compound 10 µM): 70% | viability, T/C (second compound 0.316 µM, first compound 0.0316 µM): 92% | viability, T/C (second compound 0.316 µM, first compound 0.1 µM): 82% | viability, T/C (second compound 0.316 µM, first compound 0.316 µM): 82.9% | viability, T/C (second compound 0.316 µM, first compound 1 µM): 78.4% | viability, T/C (second compound 0.316 µM, first compound 3.16 µM): 80.7% | viability, T/C (second compound 0.316 µM, first compound 10 µM): 73.9% | viability, T/C (second compound 1 µM, first compound 0.0316 µM): 105% | viability, T/C (second compound 1 µM, first compound 0.1 µM): 66.7% | viability, T/C (second compound 1 µM, first compound 0.316 µM): 74.8% | viability, T/C (second compound 1 µM, first compound 1 µM): 78.3% | viability, T/C (second compound 1 µM, first compound 3.16 µM): 67.3% | viability, T/C (second compound 1 µM, first compound 10 µM): 82.1%

NC1c2ccccc2OC12CCN(c1cnc3c(N4CCCc5ncccc54)n[nH]c3n1)CC2 (centres undefined) + CCn1c(-c2cc(N3CCN(C)CC3)cnc2C(C)OC)c2c3cc(ccc31)-c1csc(n1)CC(NC(=O)C1CC1C)C(=O)N1CCCC(N1)C(=O)OCC(C)(C)C2
pIC50 (second compound 0.000949 µM): < 5.00 | pIC50 (second compound 0.003 µM): 7.18 | pIC50 (second compound 0.00949 µM): > 7.50 | pIC50 (second compound 0.03 µM): > 7.50 | pIC50 (second compound 0.0949 µM): > 7.50 | pIC50 (second compound 0.3 µM): > 7.50 | viability, T/C (second compound 0.000949 µM, first compound 0.0316 µM): 67% | viability, T/C (second compound 0.000949 µM, first compound 0.1 µM): 60.7% | viability, T/C (second compound 0.000949 µM, first compound 0.316 µM): 55.2% | viability, T/C (second compound 0.000949 µM, first compound 1 µM): 59.3% | viability, T/C (second compound 0.000949 µM, first compound 3.16 µM): 65.6% | viability, T/C (second compound 0.000949 µM, first compound 10 µM): 63.4% | viability, T/C (second compound 0.003 µM, first compound 0.0316 µM): 60.7% | viability, T/C (second compound 0.003 µM, first compound 0.1 µM): 40.6% | viability, T/C (second compound 0.003 µM, first compound 0.316 µM): 40.3% | viability, T/C (second compound 0.003 µM, first compound 1 µM): 49.5% | viability, T/C (second compound 0.003 µM, first compound 3.16 µM): 41.3% | viability, T/C (second compound 0.003 µM, first compound 10 µM): 42.1% | viability, T/C (second compound 0.00949 µM, first compound 0.0316 µM): 40.9% | viability, T/C (second compound 0.00949 µM, first compound 0.1 µM): 34% | viability, T/C (second compound 0.00949 µM, first compound 0.316 µM): 28.5% | viability, T/C (second compound 0.00949 µM, first compound 1 µM): 33.9% | viability, T/C (second compound 0.00949 µM, first compound 3.16 µM): 24.7% | viability, T/C (second compound 0.00949 µM, first compound 10 µM): 24% | viability, T/C (second compound 0.03 µM, first compound 0.0316 µM): 24.1% | viability, T/C (second compound 0.03 µM, first compound 0.1 µM): 20.3% | viability, T/C (second compound 0.03 µM, first compound 0.316 µM): 12.9% | viability, T/C (second compound 0.03 µM, first compound 1 µM): 9.46% | viability, T/C (second compound 0.03 µM, first compound 3.16 µM): 12.2% | viability, T/C (second compound 0.03 µM, first compound 10 µM): 11.1% | viability, T/C (second compound 0.0949 µM, first compound 0.0316 µM): 17.6% | viability, T/C (second compound 0.0949 µM, first compound 0.1 µM): 17% | viability, T/C (second compound 0.0949 µM, first compound 0.316 µM): 12.7% | viability, T/C (second compound 0.0949 µM, first compound 1 µM): 7.56% | viability, T/C (second compound 0.0949 µM, first compound 3.16 µM): 5.76% | viability, T/C (second compound 0.0949 µM, first compound 10 µM): 6.14% | viability, T/C (second compound 0.3 µM, first compound 0.0316 µM): 16.5% | viability, T/C (second compound 0.3 µM, first compound 0.1 µM): 10.2% | viability, T/C (second compound 0.3 µM, first compound 0.316 µM): 7.36% | viability, T/C (second compound 0.3 µM, first compound 1 µM): 6.93% | viability, T/C (second compound 0.3 µM, first compound 3.16 µM): 7.17% | viability, T/C (second compound 0.3 µM, first compound 10 µM): 4.26%
